Experimental data: ChEMBL document CHEMBL1201862, “PubChem BioAssay data set” (2004)
Calls of active or inactive are those of the source.

Key:
[1] = molecular target: 26S proteasome non-ATPase regulatory subunit 14 (Homo sapiens, UniProt O00487); test: inhibition of proteasome subunit RPN11 – biochemical, fluorescence polarization, uHTS hits, confirmation (AID 602368); type: functional
[2] = molecular target: 72 kDa type IV collagenase (Homo sapiens, UniProt P08253); test: Dose Response validation of uHTS RPN11 inhibitor hits using a MMP-2 Fluorescence assay.; type: functional
Prothrombin = Prothrombin (Bos taurus, UniProt P00735); test: thrombin protease inhibitors – biochemical, fluorescence polarization, uHTS hits, dose response (AID 602369); type: functional
[3] = molecular target: Glucose-6-phosphate 1-dehydrogenase (Homo sapiens, UniProt P11413); test: inhibition of Homo sapiens G6PD, dose series – biochemical, fluorescence, selectivity assay for P. falciparum G6PD inhibitor project, dose response (AID 504792); type: functional
[4] = molecular target: T1, Short transient receptor potential channel 4 (Mus musculus, UniProt Q9QUQ5); test: calcium entry via TRPC4 opening agents – cell-based, HEK293 TRPC4/mu-opioid, Fluo-4 calcium, dose response (AID 434937); type: functional
T1 sequence (Q9QUQ5 whole entry): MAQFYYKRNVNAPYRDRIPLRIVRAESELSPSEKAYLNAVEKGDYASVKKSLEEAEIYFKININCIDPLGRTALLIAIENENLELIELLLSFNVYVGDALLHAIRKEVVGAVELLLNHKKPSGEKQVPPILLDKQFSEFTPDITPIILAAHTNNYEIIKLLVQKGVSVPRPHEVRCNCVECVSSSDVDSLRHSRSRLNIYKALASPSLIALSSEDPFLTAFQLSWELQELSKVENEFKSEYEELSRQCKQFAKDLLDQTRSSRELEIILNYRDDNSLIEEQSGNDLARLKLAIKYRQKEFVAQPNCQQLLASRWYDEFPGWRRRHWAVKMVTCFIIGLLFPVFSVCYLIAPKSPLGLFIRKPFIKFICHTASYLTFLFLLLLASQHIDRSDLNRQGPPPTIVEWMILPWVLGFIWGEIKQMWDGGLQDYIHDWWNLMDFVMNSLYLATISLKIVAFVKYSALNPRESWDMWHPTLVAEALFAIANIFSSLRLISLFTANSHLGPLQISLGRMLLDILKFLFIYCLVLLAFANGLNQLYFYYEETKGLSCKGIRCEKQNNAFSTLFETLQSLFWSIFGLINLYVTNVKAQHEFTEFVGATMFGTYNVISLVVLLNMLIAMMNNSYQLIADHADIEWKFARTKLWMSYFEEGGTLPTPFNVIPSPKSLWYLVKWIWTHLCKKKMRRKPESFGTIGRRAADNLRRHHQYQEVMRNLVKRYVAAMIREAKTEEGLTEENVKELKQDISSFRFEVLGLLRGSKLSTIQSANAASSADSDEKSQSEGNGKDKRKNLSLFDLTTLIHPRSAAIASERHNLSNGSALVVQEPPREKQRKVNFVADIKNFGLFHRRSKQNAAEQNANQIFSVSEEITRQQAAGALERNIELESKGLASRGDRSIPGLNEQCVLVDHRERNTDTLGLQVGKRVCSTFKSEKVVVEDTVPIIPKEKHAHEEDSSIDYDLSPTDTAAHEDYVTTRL

Trypsin = Trypsin (Sus scrofa, UniProt P00761); test: trypsin protease activity blockade – biochemical, quenched peptide fluorescence, cherry-pick, selectivity assay for Rce1 protease inhibitor project, dose response (AID 488789)
CAAX prenyl protease 2 [5] = molecular target: T2, CAAX prenyl protease 2 (Saccharomyces cerevisiae S288c, UniProt Q03530); type: biochemical
T2 sequence (Q03530 whole entry): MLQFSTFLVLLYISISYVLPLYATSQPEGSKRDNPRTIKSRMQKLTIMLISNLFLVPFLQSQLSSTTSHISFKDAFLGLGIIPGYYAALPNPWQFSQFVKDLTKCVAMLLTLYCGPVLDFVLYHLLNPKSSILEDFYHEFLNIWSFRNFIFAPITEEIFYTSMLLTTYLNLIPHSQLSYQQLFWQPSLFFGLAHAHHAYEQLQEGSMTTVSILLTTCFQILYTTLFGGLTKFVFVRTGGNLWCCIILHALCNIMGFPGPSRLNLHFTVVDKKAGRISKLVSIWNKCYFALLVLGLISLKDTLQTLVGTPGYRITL

CAAX prenyl protease 2 [6] = molecular target: T3, CAAX prenyl protease 2 (Homo sapiens, UniProt Q9Y256); test: inhibition of Ras-converting CAAX protease Rce1 – biochemical, yeast membranes, quenched-peptide fluorescence, cherry-pick, dose response (AID 588849)
T3 sequence (Q9Y256 whole entry): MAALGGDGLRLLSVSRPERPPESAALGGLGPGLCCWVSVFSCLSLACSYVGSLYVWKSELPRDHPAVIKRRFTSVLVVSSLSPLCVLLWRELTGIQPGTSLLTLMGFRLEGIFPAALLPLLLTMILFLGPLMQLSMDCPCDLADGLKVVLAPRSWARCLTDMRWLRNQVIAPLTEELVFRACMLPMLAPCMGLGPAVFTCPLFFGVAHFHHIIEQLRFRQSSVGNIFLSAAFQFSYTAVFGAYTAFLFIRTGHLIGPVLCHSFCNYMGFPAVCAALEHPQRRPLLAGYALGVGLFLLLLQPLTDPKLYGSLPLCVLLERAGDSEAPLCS

[7] = Luminescence Cell-Based Dose Response HTS to Identify Activators of Luciferase Translation or Activity in H4 […] Cells. [Related pubchem assays: 1829 (Project Summary), 1814 (Primary HTS)]; type: functional
H4 = test: Luminescence Cell-Based Dose Response HTS to Identify Activators of 5'UTR Stem-Loop Driven Prion Protein mRNA Translation in H4 Neuroglioblastoma Cells. [Related pubchem assays: 1829 (Project Summary), 1814 (Primary HTS)]; type: functional; details: Homo sapiens
HeLa = test: ATP-based viability loss in HeLa cells – cell-based, CellTiter-Glo luminescence, cherry-pick samples, cytotoxicity control for MITF activator project, dose response (AID 540259); type: functional; details: Homo sapiens
[8] = molecular target: T4, Sentrin-specific protease 8 (Homo sapiens, UniProt Q96LD8); test: inhibition of human SENP8 cleavage activity – biochemical, luminescence, SAR follow-up (AID 504501); type: functional
T4 sequence (Q96LD8 whole entry): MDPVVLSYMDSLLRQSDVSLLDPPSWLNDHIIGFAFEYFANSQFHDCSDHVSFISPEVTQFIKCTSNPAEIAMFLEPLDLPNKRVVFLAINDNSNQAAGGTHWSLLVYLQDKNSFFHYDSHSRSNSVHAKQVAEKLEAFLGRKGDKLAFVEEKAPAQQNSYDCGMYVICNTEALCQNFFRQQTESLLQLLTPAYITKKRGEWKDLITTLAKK

Caspase-3 = molecular target: T5, Caspase-3 (Homo sapiens, UniProt P42574); test: SAR Analysis of small molecule inhibitors of Sentrin-specific proteases (SENPs) using a Caspase-3 Selectivity assay. [Related pubchem assays (depositor defined):AID2540, AID2599, AID434973, AID489001]; type: functional
T5 sequence (P42574 whole entry): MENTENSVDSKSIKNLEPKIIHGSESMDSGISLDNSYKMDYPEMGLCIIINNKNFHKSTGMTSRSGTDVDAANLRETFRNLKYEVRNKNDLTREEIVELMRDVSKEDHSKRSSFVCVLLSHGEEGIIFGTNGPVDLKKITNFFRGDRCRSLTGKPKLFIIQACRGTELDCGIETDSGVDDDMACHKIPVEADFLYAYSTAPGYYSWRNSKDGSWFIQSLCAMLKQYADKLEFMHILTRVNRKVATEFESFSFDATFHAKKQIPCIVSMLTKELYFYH

[9] = molecular target: T6, Sentrin-specific protease 6 (Homo sapiens, UniProt Q9GZR1); test: SAR Analysis of small molecule inhibitors of Sentrin-specific protease 6 (SENP6) using a Luminescent assay. [Related pubchem assays (depositor defined):AID2582, AID2599]; type: functional
T6 sequence (Q9GZR1 whole entry): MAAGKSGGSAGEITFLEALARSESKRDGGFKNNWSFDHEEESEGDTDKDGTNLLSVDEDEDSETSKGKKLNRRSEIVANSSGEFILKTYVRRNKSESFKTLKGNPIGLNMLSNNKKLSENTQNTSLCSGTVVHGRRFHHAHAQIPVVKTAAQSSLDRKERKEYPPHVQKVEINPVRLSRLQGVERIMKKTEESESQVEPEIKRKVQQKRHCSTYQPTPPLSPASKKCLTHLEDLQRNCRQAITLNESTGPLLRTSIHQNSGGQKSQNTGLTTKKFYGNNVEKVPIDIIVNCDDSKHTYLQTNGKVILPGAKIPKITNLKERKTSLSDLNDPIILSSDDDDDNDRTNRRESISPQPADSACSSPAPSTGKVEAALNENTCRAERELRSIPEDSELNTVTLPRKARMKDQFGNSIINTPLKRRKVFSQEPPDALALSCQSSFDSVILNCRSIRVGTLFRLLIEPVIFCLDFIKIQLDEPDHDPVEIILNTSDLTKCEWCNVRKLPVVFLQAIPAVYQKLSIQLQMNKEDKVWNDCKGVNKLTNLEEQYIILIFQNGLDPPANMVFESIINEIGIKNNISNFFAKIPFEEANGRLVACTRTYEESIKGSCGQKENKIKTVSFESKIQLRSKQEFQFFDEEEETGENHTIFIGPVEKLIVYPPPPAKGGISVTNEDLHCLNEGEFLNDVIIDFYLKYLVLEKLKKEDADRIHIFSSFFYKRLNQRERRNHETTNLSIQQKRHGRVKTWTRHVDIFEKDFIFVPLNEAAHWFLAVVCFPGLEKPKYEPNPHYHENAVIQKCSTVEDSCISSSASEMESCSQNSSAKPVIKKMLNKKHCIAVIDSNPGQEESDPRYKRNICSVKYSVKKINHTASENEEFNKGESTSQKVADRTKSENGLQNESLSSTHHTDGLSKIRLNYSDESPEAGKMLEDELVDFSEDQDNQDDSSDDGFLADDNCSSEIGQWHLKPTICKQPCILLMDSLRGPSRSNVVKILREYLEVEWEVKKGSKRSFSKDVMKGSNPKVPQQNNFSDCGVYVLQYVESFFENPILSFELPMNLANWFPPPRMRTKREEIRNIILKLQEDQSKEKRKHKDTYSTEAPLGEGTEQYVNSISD

[10] = molecular target: T7, Sentrin-specific protease 7 (Homo sapiens, UniProt Q9BQF6); test: inhibition of human SENP7 cleavage activity – biochemical, luminescence, SAR follow-up (AID 504497); type: functional
T7 sequence (Q9BQF6 whole entry): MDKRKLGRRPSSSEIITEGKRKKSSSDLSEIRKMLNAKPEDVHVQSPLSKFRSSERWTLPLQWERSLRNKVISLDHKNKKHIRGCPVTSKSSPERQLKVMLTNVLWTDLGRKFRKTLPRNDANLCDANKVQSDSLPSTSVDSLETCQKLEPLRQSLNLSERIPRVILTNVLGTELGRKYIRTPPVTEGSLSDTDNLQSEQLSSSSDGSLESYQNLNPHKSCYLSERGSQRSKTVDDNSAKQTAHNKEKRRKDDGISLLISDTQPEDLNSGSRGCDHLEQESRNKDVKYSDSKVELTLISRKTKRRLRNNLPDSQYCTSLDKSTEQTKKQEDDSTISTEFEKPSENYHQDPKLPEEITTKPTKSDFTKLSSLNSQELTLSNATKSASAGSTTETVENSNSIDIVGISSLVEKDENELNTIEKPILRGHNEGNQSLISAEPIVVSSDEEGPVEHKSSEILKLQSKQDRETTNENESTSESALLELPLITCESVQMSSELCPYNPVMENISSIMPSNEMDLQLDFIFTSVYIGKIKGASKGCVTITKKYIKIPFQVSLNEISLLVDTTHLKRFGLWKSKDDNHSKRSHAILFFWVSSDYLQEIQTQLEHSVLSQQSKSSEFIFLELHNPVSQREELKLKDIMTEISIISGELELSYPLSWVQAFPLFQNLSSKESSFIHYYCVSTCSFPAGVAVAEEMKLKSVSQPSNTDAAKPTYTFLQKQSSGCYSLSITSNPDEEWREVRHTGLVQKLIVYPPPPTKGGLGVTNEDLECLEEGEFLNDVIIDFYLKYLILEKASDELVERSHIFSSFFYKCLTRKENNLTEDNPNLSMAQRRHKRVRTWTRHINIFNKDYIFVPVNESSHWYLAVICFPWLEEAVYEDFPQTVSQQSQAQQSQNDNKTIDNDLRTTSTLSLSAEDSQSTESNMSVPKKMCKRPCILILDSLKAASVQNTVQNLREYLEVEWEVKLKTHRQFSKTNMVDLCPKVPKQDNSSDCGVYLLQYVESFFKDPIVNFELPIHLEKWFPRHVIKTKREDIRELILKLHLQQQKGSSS

Chain of Glucose-6-phosphate 1-dehydrogenase (P11413 whole entry): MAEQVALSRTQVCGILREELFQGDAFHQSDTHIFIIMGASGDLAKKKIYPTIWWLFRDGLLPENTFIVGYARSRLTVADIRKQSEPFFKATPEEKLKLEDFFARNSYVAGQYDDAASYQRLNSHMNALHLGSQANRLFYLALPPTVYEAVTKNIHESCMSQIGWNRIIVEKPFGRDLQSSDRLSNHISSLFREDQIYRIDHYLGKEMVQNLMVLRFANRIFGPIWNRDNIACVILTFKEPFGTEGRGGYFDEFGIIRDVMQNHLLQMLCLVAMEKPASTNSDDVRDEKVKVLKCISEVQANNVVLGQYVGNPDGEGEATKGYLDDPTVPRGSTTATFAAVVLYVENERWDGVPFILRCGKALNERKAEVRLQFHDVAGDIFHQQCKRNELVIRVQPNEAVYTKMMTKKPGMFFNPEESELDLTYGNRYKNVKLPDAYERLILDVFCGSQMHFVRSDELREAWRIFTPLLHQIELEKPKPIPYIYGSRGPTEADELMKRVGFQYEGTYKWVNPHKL
Chain of Trypsin (P00761 whole entry): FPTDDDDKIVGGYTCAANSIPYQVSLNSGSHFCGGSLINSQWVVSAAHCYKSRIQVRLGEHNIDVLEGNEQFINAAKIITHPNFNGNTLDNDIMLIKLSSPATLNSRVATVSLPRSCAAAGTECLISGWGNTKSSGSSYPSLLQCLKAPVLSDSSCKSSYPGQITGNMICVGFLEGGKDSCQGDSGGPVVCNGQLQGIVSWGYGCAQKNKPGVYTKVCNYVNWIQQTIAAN
Chain of 72 kDa type IV collagenase (P08253 whole entry): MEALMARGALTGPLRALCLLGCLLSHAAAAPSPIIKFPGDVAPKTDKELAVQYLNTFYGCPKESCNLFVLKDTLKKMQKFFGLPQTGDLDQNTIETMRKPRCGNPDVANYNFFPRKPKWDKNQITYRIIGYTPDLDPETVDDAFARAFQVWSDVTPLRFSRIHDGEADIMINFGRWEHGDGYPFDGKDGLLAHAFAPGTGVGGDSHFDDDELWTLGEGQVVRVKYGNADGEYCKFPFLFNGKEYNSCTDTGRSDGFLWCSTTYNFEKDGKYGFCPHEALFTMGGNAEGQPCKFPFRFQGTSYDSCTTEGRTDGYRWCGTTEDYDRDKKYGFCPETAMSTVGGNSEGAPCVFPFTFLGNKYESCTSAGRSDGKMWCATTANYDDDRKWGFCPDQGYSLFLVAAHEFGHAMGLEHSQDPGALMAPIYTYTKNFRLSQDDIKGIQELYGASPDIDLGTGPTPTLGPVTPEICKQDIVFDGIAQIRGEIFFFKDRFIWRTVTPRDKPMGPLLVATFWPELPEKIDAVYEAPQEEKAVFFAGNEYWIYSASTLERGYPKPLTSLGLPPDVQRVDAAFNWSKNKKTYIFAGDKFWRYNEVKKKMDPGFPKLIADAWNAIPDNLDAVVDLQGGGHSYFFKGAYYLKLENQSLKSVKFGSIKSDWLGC
Chain of 26S proteasome non-ATPase regulatory subunit 14 (O00487 whole entry): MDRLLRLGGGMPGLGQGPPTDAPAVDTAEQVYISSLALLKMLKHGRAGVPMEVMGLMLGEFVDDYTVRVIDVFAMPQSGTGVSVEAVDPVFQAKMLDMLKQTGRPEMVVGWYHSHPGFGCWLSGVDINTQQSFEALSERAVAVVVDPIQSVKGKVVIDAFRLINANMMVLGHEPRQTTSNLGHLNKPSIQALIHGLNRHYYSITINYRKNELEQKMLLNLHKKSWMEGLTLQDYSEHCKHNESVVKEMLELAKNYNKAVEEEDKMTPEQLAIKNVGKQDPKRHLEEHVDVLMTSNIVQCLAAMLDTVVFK

## COc1cc(/C=C/c2nc(O)c3ccccc3n2)cc(Br)c1O
[1]
  IC50: 0.914 µM (active)
[2]
  IC50: > 100 µM (inactive)
Prothrombin
  IC50: 88 µM (active)

## Cc1cccc(C(=O)Nc2nnc(S(=O)(=O)N3CCCCCC3)s2)c1
[3]
  IC50: > 80 µM (inactive)

## CCc1cc(OCCN(C)C)ccc1Cl
[4]
  EC50: 0.267 µM (active)

## CC(C)OCCCNC(=O)c1c(N)n(CC2CCCO2)c2nc3ccccc3nc12 (configuration not stated)
Trypsin
  AC50: 5.99 µM (active)
CAAX prenyl protease 2 [5]
  AC50: 15 µM (active)
CAAX prenyl protease 2 [6]
  AC50: 9.35 µM (active)

## c1ccc(CSc2ccc(-c3ccc4c(c3)OCO4)nn2)cc1
[7]
  EC50: 4.69 µM (active)
H4
  EC50: > 120 µM (not active)
HeLa
  AC50: 112 µM (active)

## Cc1cccn2c(CNCCc3ccccn3)c(C(=O)N3CCOCC3)nc12
[4]
  EC50: 1.68 µM (active)

## Oc1ccc(-c2nccc(-c3ccccn3)n2)cc1
HeLa
  AC50: 55.2 µM (active)

## C=CCOc1c(Cl)cc(CNc2ccc(N(C)C)cc2)cc1OC
[3]
  IC50: > 80 µM (inactive)

## CCn1c(CN2CCN(Cc3ccc(C)cc3)C(CCO)C2)nc2ccccc21 (configuration not stated)
[4]
  EC50: 0.668 µM (active)

## O=C(/C=C/c1cn(-c2ccccc2)nc1-c1cccs1)NCCN1CCOCC1
CAAX prenyl protease 2 [5]
  AC50: 10.8 µM (active)
CAAX prenyl protease 2 [6]
  AC50: > 100 µM (inactive)

## COc1ccc(N/N=C/c2c[nH]c3ccccc23)cc1
[8]
  IC50: 29.5 µM (active)
Caspase-3
  IC50: 19.9 µM (active)
[9]
  IC50: 25.8 µM (active)
[10]
  IC50: 11.4 µM (active)

## COc1cccc(-c2noc(/C=C/c3ccccc3Cl)n2)c1
[8]
  IC50: 18 µM (active)
Caspase-3
  IC50: 20 µM (active)
[9]
  IC50: 14 µM (active)
[10]
  IC50: 5.2 µM (active)

## CC(=O)c1ccc(N2Cc3ccccc3/C2=N\C(=O)c2cccs2)cc1
HeLa
  AC50: 76.6 µM (active)

## CCn1cc(CN2CCCC(C(=O)Nc3ccc(-c4nc5ccccc5[nH]4)cc3)C2)c(C)n1 (configuration not stated)
[4]
  EC50: 0.267 µM (active)
